Measurements from US12421206B2, “Aryl-n-aryl derivatives for treating a RNA virus infection” (ABIVAX, priority 2018, dated 2025).

What follows are compounds tested on RSV A2 (assay: RSV inhibition (cytopathic effect inhibition) using Viral ToxGlo assay in HEp-2 cells). Conditions: human respiratory syncytial virus, RSV A2, MOI 0.5, HEp-2 cells, 72 h p.i.
Assay type: cell-based
Method in brief: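 HEp-2 cells in EMEM with 2% FBS were infected with RSV A2 at MOI 0.5 immediately after compound (≤1% DMSO) and incubated 72 h at 37 °C. Viral ToxGlo luminescence gave % cytopathic effect inhibition versus virus control, plus cytotoxicity versus cell control; EC50 derived from dose-response.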

Row | Compound | EC50
1 | O=C(NCCC1CCCCC1)c1cccc(Nc2ccc(OCc3ccccn3)cc2)c1 [Compound 38, N-(2-cyclohexylethyl)-3-((4-(pyridin-2-ylmethoxy)phenyl)amino)benzamide] | 281 nM
2 | Cc1cc(OCc2ccccn2)ccc1Nc1cccc(C(=O)NCCC2CC2)c1 [Compound 45, N-(2-cyclopropylethyl)-3-((2-methyl-4-(pyridin-2-ylmethoxy)phenyl)amino)benzamide] | 280 nM
3 | Cc1cc(OCc2ccccn2)ccc1Nc1cccc(C(=O)NCCC2CCC2)c1 [Compound 46, N-(2-cyclobutylethyl)-3-((2-methyl-4-(pyridin-2-ylmethoxy)phenyl)amino)benzamide] | 199 nM
4 | CCCC(C)NC(=O)c1cccc(Nc2ccc(OCc3ccccn3)cc2)c1 (centres unmarked) [Compound 64, N-(pentan-2-yl)-3-((4-(pyridin-2-ylmethoxy)phenyl)amino)benzamide] | 341 nM
5 | Cc1cc(OCc2ccccn2)ccc1Nc1cccc(NC(=O)NCCC(C)C)c1 [Compound 68, 1-isopentyl-3-(3-((2-methyl-4-(pyridin-2-ylmethoxy)phenyl)amino)phenyl)urea] | 144 nM
